Data reported in paper PMC6092513, “Mechanisms Underlying the Strong Inhibition of Muscle-Type Nicotinic Receptors by Tetracaine” (Frontiers in Molecular Neuroscience, 2018).

Experiments:
[1] = target: T1, muscle-type nicotinic acetylcholine receptor (nAChR) (Torpedo marmorata, UniProt P02711+Q6S3H8+Q6S3H9+Q6S3I0); assay: two-electrode voltage clamp, ACh concentration-current curve in Xenopus oocytes bearing transplanted nAChRs; type: cell-based
T1 construct: gene CHRNA1; native heteropentameric receptor purified from electroplaques, reconstituted in asolectin lipids and transplanted to Xenopus oocytes; with beta1, gamma and delta nAChR subunits (CHRNB1, CHRNG, CHRND) with two alpha1

[2] = target: T1, muscle-type nicotinic acetylcholine receptor (nAChR); assay: two-electrode voltage clamp of ACh-elicited peak currents ([…] ACh) in Xenopus oocytes bearing transplanted nAChRs; type: cell-based

T1 sequence (P02711 25-461): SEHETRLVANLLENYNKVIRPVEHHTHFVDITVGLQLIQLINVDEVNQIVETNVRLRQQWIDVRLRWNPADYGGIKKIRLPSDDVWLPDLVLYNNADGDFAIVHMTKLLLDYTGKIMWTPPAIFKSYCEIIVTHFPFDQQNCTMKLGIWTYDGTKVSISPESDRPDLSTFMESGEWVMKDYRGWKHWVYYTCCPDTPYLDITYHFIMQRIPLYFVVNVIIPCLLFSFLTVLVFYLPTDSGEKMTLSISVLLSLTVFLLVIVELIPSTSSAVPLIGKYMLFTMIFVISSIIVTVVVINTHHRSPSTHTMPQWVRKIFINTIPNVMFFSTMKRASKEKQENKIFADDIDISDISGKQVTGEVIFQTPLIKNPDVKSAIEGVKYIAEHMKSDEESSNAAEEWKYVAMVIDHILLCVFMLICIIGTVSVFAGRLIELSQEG
T1 sequence (Q6S3I0 25-493): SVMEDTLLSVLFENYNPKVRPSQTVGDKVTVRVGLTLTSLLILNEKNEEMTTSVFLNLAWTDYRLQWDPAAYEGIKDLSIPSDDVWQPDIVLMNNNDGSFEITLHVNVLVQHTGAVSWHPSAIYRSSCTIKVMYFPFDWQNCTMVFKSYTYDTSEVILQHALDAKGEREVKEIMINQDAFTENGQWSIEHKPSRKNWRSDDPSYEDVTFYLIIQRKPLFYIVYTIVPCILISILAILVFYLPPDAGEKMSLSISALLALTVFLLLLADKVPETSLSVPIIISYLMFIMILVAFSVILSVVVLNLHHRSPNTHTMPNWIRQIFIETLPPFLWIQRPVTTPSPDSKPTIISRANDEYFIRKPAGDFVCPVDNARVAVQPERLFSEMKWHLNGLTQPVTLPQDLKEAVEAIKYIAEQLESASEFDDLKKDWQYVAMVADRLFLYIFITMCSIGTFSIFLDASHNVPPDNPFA
T1 sequence (Q6S3H9 18-505): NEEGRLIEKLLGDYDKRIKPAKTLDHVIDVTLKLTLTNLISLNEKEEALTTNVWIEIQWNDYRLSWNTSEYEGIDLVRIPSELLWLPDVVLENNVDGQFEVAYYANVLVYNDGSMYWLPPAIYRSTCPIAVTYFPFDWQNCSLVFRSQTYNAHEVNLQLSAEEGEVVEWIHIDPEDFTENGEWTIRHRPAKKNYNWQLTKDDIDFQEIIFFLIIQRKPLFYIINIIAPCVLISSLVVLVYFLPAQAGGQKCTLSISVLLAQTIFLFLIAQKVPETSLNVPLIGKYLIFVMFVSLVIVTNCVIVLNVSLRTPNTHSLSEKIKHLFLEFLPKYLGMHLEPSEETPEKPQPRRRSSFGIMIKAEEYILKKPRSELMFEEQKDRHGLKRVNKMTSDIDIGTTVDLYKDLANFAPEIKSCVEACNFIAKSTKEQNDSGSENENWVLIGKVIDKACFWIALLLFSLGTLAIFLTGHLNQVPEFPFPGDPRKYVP
T1 sequence (Q6S3H8 22-522): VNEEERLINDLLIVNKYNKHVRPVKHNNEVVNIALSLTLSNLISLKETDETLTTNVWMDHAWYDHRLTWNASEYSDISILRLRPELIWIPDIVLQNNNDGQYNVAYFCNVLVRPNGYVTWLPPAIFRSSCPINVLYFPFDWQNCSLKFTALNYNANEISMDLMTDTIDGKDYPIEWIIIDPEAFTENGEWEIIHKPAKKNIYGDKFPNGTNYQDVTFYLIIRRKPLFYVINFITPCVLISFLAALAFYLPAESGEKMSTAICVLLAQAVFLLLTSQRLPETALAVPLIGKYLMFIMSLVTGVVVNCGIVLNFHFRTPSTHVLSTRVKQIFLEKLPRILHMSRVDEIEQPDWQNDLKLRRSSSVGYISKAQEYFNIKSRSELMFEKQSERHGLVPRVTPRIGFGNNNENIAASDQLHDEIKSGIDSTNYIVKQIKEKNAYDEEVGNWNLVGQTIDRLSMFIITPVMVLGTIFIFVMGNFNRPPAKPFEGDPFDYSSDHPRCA

IC50 [2] [µM] | Structure (SMILES) | EC50 [1] [µM]
– | CC(=O)OCC[N+](C)(C)C [ACh, acetylcholine] | 37
0.7 | CCCCNc1ccc(C(=O)OCCN(C)C)cc1 [Ttc, 2-(dimethylamino)ethyl 4-(butylamino)benzoate] | –
